From article PMC5762309 (Oncotarget, 2017)
Like-named read-outs stand apart in the source and are kept apart here.

What was measured:
[1] = target: T1, JAK2(JH1domain-catalytic) (Homo sapiens, UniProt O60674); assay: KINOMEScan; format: binding; design: dose or concentration left out as unconfirmed
T1 construct: JAK2(JH1domain-catalytic); purchased DiscoverX KINOMEscan

[2] = target: T2, MARK4 (Homo sapiens, UniProt Q96L34); assay: KINOMEScan; format: binding; design: dose or concentration left out as unconfirmed
T2 construct: purchased DiscoverX KINOMEscan

[3] = target: T3, BTK (Homo sapiens, UniProt Q06187); assay: KINOMEScan; format: binding; design: dose or concentration left out as unconfirmed
T3 construct: purchased DiscoverX KINOMEscan

[4] = target: T4, JAK1(JH1domain-catalytic) (Homo sapiens, UniProt P23458); assay: KINOMEScan; format: binding; design: dose or concentration left out as unconfirmed
T4 construct: JAK1(JH1domain-catalytic); purchased DiscoverX KINOMEscan

[5] = target: T5, MAP4K3 (Homo sapiens, UniProt Q8IVH8); assay: KINOMEScan; format: binding; design: dose or concentration left out as unconfirmed
T5 construct: purchased DiscoverX KINOMEscan

[6] = target: T6, TYK2(JH2domain-pseudokinase) (Homo sapiens, UniProt P29597); assay: KINOMEScan; format: binding; design: dose or concentration left out as unconfirmed
T6 construct: TYK2(JH2domain-pseudokinase); purchased DiscoverX KINOMEscan

[7] = target: T7, LATS2 (Homo sapiens, UniProt Q9NRM7); assay: KINOMEScan; format: binding; design: dose or concentration left out as unconfirmed
T7 construct: purchased DiscoverX KINOMEscan

[8] = test system: FLT3(ITD); assay: KINOMEScan; format: binding; design: dose or concentration left out as unconfirmed
[9] = test system: 468 kinases/mutants; assay: KINOMEScan kinome-wide selectivity S score; format: binding; details: 1 μM
Excerpt: Then we used the DiscoverX’s KINOMEScan platform to further examine CHMFL-KIT-031’s kinome-wide selectivity profile. […] Besides the strong binding to V559D, it also bound strongly to KIT wt, L576P and A829P.

[10] = target: T8, EGFR (Homo sapiens, UniProt P00533); assay: KINOMEScan; format: binding; design: dose or concentration left out as unconfirmed
T8 construct: purchased DiscoverX KINOMEscan

[11] = test system: FLT3(ITD,F691L); assay: KINOMEScan; format: binding; design: dose or concentration left out as unconfirmed
[12] = target: T9, PKMYT1 (Homo sapiens, UniProt Q99640); assay: KINOMEScan; format: binding; design: dose or concentration left out as unconfirmed
T9 construct: purchased DiscoverX KINOMEscan

[13] = target: T10, PLK2 (Homo sapiens, UniProt Q9NYY3); assay: KINOMEScan; format: binding; design: dose or concentration left out as unconfirmed
T10 construct: purchased DiscoverX KINOMEscan
T10 sequence (Q9NYY3 whole entry): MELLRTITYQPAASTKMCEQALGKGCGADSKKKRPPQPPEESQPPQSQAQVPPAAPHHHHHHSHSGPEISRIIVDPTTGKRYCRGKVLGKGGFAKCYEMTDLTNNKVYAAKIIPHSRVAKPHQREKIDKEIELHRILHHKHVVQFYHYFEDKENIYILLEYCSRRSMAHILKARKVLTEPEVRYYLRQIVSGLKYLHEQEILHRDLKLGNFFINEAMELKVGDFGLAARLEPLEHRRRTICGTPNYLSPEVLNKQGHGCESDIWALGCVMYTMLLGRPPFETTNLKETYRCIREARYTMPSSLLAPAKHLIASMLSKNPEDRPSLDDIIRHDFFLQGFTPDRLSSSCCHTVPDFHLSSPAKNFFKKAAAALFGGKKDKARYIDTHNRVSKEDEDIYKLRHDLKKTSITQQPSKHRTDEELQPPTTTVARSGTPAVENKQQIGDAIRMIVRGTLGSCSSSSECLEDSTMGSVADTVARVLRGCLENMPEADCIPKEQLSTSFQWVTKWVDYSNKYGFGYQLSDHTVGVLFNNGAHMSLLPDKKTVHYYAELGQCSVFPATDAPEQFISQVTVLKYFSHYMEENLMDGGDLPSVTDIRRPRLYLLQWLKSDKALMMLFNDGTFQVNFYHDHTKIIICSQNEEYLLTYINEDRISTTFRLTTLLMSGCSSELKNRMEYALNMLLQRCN

[14] = target: KIT L576p (Homo sapiens, UniProt P10721, L576P); assay: KIT auto-phosphorylation in transformed BaF3 cells; details: 2h
KIT L576p, sequence (P10721 26-976 L576P): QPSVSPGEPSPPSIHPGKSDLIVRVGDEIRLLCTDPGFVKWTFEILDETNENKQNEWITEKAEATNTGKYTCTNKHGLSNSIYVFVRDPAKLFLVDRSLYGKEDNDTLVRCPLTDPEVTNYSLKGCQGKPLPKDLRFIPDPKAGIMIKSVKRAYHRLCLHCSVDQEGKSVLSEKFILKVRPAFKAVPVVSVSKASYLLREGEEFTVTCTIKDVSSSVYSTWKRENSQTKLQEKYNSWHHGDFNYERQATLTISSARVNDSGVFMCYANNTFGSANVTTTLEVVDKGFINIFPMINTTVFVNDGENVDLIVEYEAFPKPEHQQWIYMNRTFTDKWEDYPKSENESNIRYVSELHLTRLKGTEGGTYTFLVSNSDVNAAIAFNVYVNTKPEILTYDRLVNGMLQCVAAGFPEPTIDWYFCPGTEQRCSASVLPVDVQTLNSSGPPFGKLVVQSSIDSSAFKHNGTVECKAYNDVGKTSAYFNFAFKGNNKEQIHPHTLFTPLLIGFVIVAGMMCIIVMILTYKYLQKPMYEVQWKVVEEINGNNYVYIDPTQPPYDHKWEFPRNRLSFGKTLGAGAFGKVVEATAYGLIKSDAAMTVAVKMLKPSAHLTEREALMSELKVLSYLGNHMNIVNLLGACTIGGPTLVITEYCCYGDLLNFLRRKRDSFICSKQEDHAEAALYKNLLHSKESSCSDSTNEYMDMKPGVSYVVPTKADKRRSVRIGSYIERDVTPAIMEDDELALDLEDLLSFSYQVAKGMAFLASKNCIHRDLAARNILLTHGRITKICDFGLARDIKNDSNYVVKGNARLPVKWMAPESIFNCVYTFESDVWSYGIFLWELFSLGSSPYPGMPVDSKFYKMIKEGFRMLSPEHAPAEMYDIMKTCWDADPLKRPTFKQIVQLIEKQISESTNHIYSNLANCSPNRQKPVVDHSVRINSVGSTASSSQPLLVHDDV

[15] = target: T11, CHEK1 (Homo sapiens, UniProt O14757); assay: KINOMEScan; format: binding; design: dose or concentration left out as unconfirmed
T11 construct: purchased DiscoverX KINOMEscan

[16] = target: T12, CDK2 (Homo sapiens, UniProt P24941); assay: KINOMEScan; format: binding; design: dose or concentration left out as unconfirmed
T12 construct: purchased DiscoverX KINOMEscan

[17] = target: KIT T670I/V559D (Homo sapiens, UniProt P10721, T670I/V559D); assay: KIT auto-phosphorylation in transformed BaF3 cells
KIT T670I/V559D, sequence (P10721 26-976 V559D/T670I): as the sequence (P10721 26-976 L576P) above, with V534D, P551L, T645I counted along it

[18] = target: T13, JNK3 (Homo sapiens, UniProt P53779); assay: KINOMEScan; format: binding; design: dose or concentration left out as unconfirmed
T13 construct: purchased DiscoverX KINOMEscan

[19] = target: KIT V559D (Homo sapiens, UniProt P10721, V559D); assay: Kd determination by MST; format: binding; design: Kit V559D encoding residues 545-976 with His tag; His tag; made in house; host or cells: SF9 insect cells (baculovirus); details: purified protein
[20] = target: T14, JNK1 (Homo sapiens, UniProt P45983); assay: KINOMEScan; format: binding; design: dose or concentration left out as unconfirmed
T14 construct: purchased DiscoverX KINOMEscan

[21] = target: KIT N822K (Homo sapiens, UniProt P10721, N822K); assay: KIT auto-phosphorylation in transformed BaF3 cells
KIT N822K, sequence (P10721 26-976 N822K): as the sequence (P10721 26-976 L576P) above, with P551L, N797K counted along it

[22] = test system: FLT3(ITD,D835V); assay: KINOMEScan; format: binding; design: dose or concentration left out as unconfirmed
[23] = target: T15, JNK2 (Homo sapiens, UniProt P45984); assay: KINOMEScan; format: binding; design: dose or concentration left out as unconfirmed
T15 construct: purchased DiscoverX KINOMEscan

[24] = target: T16, SNARK (Homo sapiens, UniProt Q9H093); assay: KINOMEScan; format: binding; design: dose or concentration left out as unconfirmed
T16 construct: purchased DiscoverX KINOMEscan
T16 sequence (Q9H093 whole entry): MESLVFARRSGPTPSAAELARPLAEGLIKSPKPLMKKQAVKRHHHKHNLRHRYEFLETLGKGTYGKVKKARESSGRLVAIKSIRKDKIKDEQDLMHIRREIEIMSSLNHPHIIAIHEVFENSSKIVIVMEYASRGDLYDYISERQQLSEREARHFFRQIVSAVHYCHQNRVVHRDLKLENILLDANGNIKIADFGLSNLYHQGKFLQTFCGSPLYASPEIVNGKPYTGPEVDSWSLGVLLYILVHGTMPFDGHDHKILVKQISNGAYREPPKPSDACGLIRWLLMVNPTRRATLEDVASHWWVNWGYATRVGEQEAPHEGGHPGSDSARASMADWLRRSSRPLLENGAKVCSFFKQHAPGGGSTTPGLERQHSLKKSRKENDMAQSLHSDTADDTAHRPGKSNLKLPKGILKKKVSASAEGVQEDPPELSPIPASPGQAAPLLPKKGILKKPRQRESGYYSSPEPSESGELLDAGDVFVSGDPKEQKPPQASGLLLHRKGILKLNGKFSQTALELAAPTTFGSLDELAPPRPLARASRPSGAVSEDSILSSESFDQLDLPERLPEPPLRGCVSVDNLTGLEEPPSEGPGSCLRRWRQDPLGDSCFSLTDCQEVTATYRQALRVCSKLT

[25] = test system: BaF3-TEL-KIT-V559D tumors; assay: BaF3-TEL-KIT-V559D allograft model
[26] = target: T17, JAK1(JH2domain-pseudokinase) (Homo sapiens, UniProt P23458); assay: KINOMEScan; format: binding; design: dose or concentration left out as unconfirmed
T17 construct: JAK1(JH2domain-pseudokinase); purchased DiscoverX KINOMEscan
T17 sequence (P23458 583-855 limits assumed): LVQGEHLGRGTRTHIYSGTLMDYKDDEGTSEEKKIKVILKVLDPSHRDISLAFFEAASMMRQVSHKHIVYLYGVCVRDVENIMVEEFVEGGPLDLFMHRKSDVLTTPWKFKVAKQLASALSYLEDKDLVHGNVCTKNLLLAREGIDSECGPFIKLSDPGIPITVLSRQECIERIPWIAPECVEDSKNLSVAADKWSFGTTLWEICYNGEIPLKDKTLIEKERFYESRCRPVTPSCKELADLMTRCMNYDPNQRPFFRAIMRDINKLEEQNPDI

[27] = target: T18, MET(M1250T) (Homo sapiens, UniProt P08581, M1250T); assay: KINOMEScan; format: binding; design: dose or concentration left out as unconfirmed
T18 construct: purchased DiscoverX KINOMEscan
T18 sequence (P08581 25-1390 M1250T): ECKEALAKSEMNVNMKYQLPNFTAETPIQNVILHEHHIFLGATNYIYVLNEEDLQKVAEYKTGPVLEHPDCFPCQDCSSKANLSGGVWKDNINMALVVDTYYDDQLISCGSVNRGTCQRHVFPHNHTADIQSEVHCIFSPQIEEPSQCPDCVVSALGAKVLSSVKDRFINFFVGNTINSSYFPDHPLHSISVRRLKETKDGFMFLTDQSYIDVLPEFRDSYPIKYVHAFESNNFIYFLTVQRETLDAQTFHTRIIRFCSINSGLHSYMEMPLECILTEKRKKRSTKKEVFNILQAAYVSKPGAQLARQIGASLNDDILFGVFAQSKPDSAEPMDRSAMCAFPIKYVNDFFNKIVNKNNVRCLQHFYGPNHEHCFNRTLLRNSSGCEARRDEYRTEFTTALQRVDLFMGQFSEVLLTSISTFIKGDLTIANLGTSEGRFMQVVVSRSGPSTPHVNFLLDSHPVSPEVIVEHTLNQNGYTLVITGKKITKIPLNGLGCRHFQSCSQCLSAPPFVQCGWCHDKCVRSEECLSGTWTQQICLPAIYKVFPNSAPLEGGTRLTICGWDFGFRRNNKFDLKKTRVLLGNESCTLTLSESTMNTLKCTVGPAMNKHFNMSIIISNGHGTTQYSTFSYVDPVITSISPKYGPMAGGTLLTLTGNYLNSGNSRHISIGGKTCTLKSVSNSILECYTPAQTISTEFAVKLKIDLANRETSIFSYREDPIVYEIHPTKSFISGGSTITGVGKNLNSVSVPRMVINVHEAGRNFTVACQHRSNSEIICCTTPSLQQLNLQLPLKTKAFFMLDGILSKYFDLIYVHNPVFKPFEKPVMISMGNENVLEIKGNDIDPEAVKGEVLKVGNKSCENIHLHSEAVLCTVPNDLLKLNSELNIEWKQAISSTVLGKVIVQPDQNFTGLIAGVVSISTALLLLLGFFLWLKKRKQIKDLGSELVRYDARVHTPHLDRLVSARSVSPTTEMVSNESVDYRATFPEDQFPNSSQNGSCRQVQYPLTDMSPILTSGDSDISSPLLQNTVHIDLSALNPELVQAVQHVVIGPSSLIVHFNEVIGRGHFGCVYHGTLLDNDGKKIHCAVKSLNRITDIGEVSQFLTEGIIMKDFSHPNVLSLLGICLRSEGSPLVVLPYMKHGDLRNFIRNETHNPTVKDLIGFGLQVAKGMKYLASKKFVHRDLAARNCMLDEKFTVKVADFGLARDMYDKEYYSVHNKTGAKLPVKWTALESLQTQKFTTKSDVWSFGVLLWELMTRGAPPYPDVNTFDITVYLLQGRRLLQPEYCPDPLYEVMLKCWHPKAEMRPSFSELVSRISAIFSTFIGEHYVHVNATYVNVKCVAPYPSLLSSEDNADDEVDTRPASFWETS

[28] = target: KIT wt (Homo sapiens, UniProt P10721); assay: Kd determination by MST; format: binding; design: wt KIT residues 544-935 with a His tag; His tag; made in house; host or cells: SF9 insect cells (baculovirus); details: purified protein
KIT wt, sequence (P10721 544-935): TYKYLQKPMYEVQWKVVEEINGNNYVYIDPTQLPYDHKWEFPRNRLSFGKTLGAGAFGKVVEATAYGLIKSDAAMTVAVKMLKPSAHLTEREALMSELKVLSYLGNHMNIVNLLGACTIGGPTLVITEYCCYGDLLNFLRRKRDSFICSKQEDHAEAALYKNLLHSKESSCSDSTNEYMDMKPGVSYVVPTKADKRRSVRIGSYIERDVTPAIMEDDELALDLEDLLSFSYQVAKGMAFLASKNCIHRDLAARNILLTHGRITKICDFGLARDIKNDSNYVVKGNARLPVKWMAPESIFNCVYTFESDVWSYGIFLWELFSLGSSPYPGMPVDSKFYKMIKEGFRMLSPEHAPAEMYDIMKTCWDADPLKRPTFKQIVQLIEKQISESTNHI

[29] = target: T19, EGFR(G719C) (Homo sapiens, UniProt P00533, G719C); assay: KINOMEScan; format: binding; design: dose or concentration left out as unconfirmed
T19 construct: purchased DiscoverX KINOMEscan

[30] = target: T20, CDK3 (Homo sapiens, UniProt Q00526); assay: KINOMEScan; format: binding; design: dose or concentration left out as unconfirmed
T20 construct: purchased DiscoverX KINOMEscan
T20 sequence (Q00526 whole entry): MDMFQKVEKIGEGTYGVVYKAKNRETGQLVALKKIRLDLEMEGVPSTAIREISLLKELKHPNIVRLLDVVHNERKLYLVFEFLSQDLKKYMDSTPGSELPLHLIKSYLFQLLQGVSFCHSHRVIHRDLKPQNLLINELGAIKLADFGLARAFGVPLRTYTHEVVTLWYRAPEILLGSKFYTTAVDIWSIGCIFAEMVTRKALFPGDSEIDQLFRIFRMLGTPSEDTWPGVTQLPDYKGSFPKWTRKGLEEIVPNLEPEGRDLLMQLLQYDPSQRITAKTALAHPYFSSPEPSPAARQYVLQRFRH

T1 sequence (O60674 849-1132 limits assumed): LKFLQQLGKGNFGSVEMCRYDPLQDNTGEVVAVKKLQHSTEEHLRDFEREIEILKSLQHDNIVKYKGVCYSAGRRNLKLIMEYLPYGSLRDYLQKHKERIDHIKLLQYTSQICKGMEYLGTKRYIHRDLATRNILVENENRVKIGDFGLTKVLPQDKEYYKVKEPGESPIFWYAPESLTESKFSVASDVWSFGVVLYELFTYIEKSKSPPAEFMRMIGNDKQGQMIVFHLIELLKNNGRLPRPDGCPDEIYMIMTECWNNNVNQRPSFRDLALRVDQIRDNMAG

With `COc1cc(C(=O)NCC(=O)Nc2ccc3c(/C=C/c4ccccn4)n[nH]c3c2)cc(OC)c1OC` [CHMFL-KIT-031] the KINOMEScan profiling value [1] was 100, the KINOMEScan profiling value [2] was 96 and the KINOMEScan profiling value [3] was 100. For the same compound, the KINOMEScan profiling value [4] was 87, the KINOMEScan profiling value [5] was 100 and the KINOMEScan profiling value [6] was 100. The KINOMEScan profiling value [7] was 100, the KINOMEScan profiling value [8] was 44 and the “S score (1)” value [9] was 0.01. For the same compound, the KINOMEScan profiling value [10] was 100, the KINOMEScan profiling value [11] was 91 and the KINOMEScan profiling value [12] was 91. For the same compound, the KINOMEScan profiling value [13] was 100, the EC50 ([14]; EC50 pY703 auto-phosphorylation) was > 10 µM and the EC50 ([14]; EC50 pY719 auto-phosphorylation) was 5.9 µM. The EC50 ([14]; EC50 pY823 auto-phosphorylation) was 1.9 µM, the KINOMEScan profiling value [15] was 97 and the KINOMEScan profiling value [16] was 100. For the same compound, the EC50 [17] was > 10 µM, the EC50 ([17]; read-out: EC50 pY719 auto-phosphorylation, KIT T670I/V559D transformed BaF3 cells, 2h) was > 10 µM and the EC50 ([17]; read-out: EC50 pY823 auto-phosphorylation, KIT T670I/V559D transformed BaF3 cells, 2h) was > 10 µM. The KINOMEScan profiling value [18] was 99, the Kd [19] was 0.266 µM and the KINOMEScan profiling value [20] was 94. The EC50 [21] was > 10 µM, the EC50 ([21]; read-out: EC50 pY719 auto-phosphorylation, KIT N822K transformed BaF3 cells, 2h) was > 10 µM and the EC50 ([21]; read-out: EC50 pY823 auto-phosphorylation, KIT N822K transformed BaF3 cells, 2h) was > 10 µM. It also gave a KINOMEScan profiling value [22] of 73, a KINOMEScan profiling value [23] of 92 and a KINOMEScan profiling value [24] of 100. For the same compound, the TGI ([25]; 100mg/kg/d IP, 10 days) was 68.5%, the “KIT, AKT, S6 and STAT3 phosphorylation in tumor tissue” value ([25]; starting from 50 mg/kg, Western blot after 10-day treatment) was “significantly affect” and the KINOMEScan profiling value [26] was 85. It also gave a KINOMEScan profiling value [27] of 100, a Kd [28] of 6.64 µM and a KINOMEScan profiling value [29] of 100. The KINOMEScan profiling value [30] was 100.
